Where two headings read alike, the source gives them in different places.

Consider two compounds from publication PMC2932787 (Journal of the American Society for Mass Spectrometry, 2010).

Experiment [1] has as its target Porcine calmodulin saturated with calcium (CaM·4Ca2+) (porcine). The experiment in a line: HDX-MS.
Experiment [2] shares this target. In words: HDX-MS. This is another data set of the same source.
Experiment [3] addresses calcium-saturated calmodulin (CaM·4Ca^2+) (Sus scrofa, UniProt F2Z5G3).
Experiment [4] concerns the target calmodulin. Particulars: read-out: dissociation constant; 4°C, pH 7.0; equilibrium dialysis; ref [35]; cited from earlier work.
In experiment [5] the target is calmodulin. Particulars: read-out: dissociation constant; 25°C, pH 7.3; fluorescence of dansylcalmodulin; ref [33]; cited from earlier work.
The target of experiment [6] is calcium-saturated calmodulin (CaM·4Ca^2+) (Homo sapiens, UniProt P0DP23).
Experiment [7] has as its system calmodulin. Particulars: amino- and carboxy-terminal deletion peptides; ref [38]; cited from earlier work.
Setting [8] is: from ΔD1, corrected for 50% D2O.

Chain of β-endorphin (P01189 237-267): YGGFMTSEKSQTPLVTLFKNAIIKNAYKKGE

For “β-endorphin (from UniProt P01189 237-267) (peptide)”, the Ka in experiment [1] worked out at 220000 M⁻¹; in experiment [2] it was 205000 M⁻¹. Also, the Kd in experiment [1] was 4.5 µM; in experiment [2] it was 4.9 µM.
For the compound `CC[C@H](C)[C@H](NC(=O)[C@H](C)NC(=O)[C@H](CC(N)=O)NC(=O)[C@H](CCCCN)NC(=O)[C@H](Cc1ccccc1)NC(=O)[C@H](CC(C)C)NC(=O)[C@@H](NC(=O)[C@@H](NC(=O)[C@H](CC(C)C)NC(=O)[C@@H]1CCCN1C(=O)[C@@H](NC(=O)[C@H](CCC(N)=O)NC(=O)[C@H](CO)NC(=O)[C@H](CCCCN)NC(=O)[C@H](CCC(=O)O)NC(=O)[C@H](CO)NC(=O)[C@@H](NC(=O)[C@H](CCSC)NC(=O)[C@H](Cc1ccccc1)NC(=O)CNC(=O)CNC(=O)[C@@H](N)Cc1ccc(O)cc1)[C@@H](C)O)[C@@H](C)O)C(C)C)[C@@H](C)O)C(=O)N[C@H](C(=O)N[C@@H](CCCCN)C(=O)N[C@@H](CC(N)=O)C(=O)N[C@@H](C)C(=O)N[C@@H](Cc1ccc(O)cc1)C(=O)N[C@@H](CCCCN)C(=O)N[C@@H](CCCCN)C(=O)NCC(=O)N[C@@H](CCC(=O)O)C(=O)O)[C@@H](C)CC` [β-endorphin], the “ΔD1 (difference in deuterium uptake between bound and unbound peptide)” value in experiment [3] (dPLIMSTEX, peptide mass readout, 50% D2O) is recorded as 3.96 ± 0.09. Also, the “backbone amides of the peptide protected upon binding to CaM·4Ca^2+” value in experiment [3] (setting [8]) is given as “at least eight”. For the same compound, the Kd is 2.5 to 4.6 µM at calmodulin [4] and 1900 to 3800 nM at calmodulin [5]. Moreover, the “backbone amide protons of CaM·4Ca^2+ that become protected on binding” value in experiment [6] (setting [8]) was “approximately 30”. For the same compound, the “ΔD1 (difference in deuterium uptake of the protein on binding)” value in experiment [6] (traditional PLIMSTEX, protein mass readout, 50% D2O) came to 15.0. In the experiment on calmodulin [7], the “domain responsible for inhibition of calmodulin function” value is given as “residues 14–25”.
